From US4200573A, “Derivatives of 3-carboxyrifamycin S and SV and process for their preparation” (Alfa Farmaceutici, S.p.A., priority 1977, dated 1980)
Values after ≈ are worked out from the molar mass of the structure shown. “Also recorded” adds a separate entry of the source.

Tests used:
[1] = chemical stability (observation); format: physicochemical
Salmonella p typhi B = assay: Minimal inhibiting concentration (MIC), in vitro antibacterial activity, Salmonella p typhi B; format: cell-based; conditions: read-out: Minimal inhibiting concentration (MIC)
From the text: (§1) The derivatives of 3-carboxyrifamycins S and SV according to the present invention have an antibacterial activity in vitro as shown by the data in the examples where are reported the minimal inhibiting concentrations (MIC) expressed in mcg/ml against different patogenic microorganisms.

Klebsiella Ottaviani = assay: Minimal inhibiting concentration (MIC), in vitro antibacterial activity, Klebsiella Ottaviani; format: cell-based; conditions: read-out: Minimal inhibiting concentration (MIC)
From the text: as §1

St. Aureus 209 P = assay: Minimal inhibiting concentration (MIC), in vitro antibacterial activity, St. Aureus 209 P; format: cell-based; conditions: Staphylococcus aureus
From the text: as §1

E. Coli ML/35 = assay: Minimal inhibiting concentration (MIC), in vitro antibacterial activity, E. Coli ML/35; format: cell-based; conditions: Escherichia coli
From the text: as §1

**Q.** For 3-carboxyrifamycin, which stability [1] is on record?
**A.** instable product and gives very easily rise to reaction of decarboxylation; also recorded: unstable product which easily decomposes

**Q.** Which MIC (Salmonella p typhi B) does the source give for `COC(=O)C1=C2NC(=O)/C(C)=C\C=C\[C@H](C)[C@H](O)[C@@H](C)[C@@H](O)[C@@H](C)[C@H](OC(C)=O)[C@H](C)[C@@H](OC)/C=C/O[C@@]3(C)Oc4c(C)c(O)c(c(c4C3=O)C1=O)C2=O` [Example 6, 3-(carbomethoxy)rifamycin S] here?
**A.** > 50 µg/mL

**Q.** And the MIC (Klebsiella Ottaviani)?
**A.** 25 to 50 µg/mL (≈ 33.2 to 66.3 µM)

**Q.** And the MIC (St. Aureus 209 P)?
**A.** 0.05 to 0.1 µg/mL (≈ 0.0663 to 0.133 µM)

**Q.** And the MIC (E. Coli ML/35)?
**A.** 25 to 50 µg/mL (≈ 33.2 to 66.3 µM)

**Q.** Which results are given for `CO[C@H]1/C=C/O[C@@]2(C)Oc3c(C)c(O)c4c(c3C2=O)C(=O)C(C(=O)N2CCN(C)CC2)=C(NC(=O)/C(C)=C\C=C\[C@H](C)[C@H](O)[C@@H](C)[C@@H](O)[C@@H](C)[C@H](OC(C)=O)[C@@H]1C)C4=O` [Example 8, 3-(N-methyl N'-piperazinylcarbonyl)rifamycin S]?
**A.** MIC (Salmonella p typhi B): > 50 µg/mL; MIC (Klebsiella Ottaviani): > 50 µg/mL; MIC (St. Aureus 209 P): 0.1 to 0.25 µg/mL (≈ 0.122 to 0.304 µM); MIC (E. Coli ML/35): > 50 µg/mL

**Q.** For `CO[C@H]1/C=C/O[C@@]2(C)Oc3c(C)c(O)c4c(c3C2=O)C(=O)C(C(=O)NN(C)C)=C(NC(=O)/C(C)=C\C=C\[C@H](C)[C@H](O)[C@@H](C)[C@@H](O)[C@@H](C)[C@H](OC(C)=O)[C@@H]1C)C4=O` [Example 10, 3-(NN-dimethyl N-hydrazinocarbonyl)rifamycin S], which MIC (Salmonella p typhi B) is on record?
**A.** > 50 µg/mL

**Q.** And the MIC (Klebsiella Ottaviani)?
**A.** > 50 µg/mL

**Q.** And the MIC (E. Coli ML/35)?
**A.** > 50 µg/mL

**Q.** For `CO[C@H]1/C=C/O[C@@]2(C)Oc3c(C)c(O)c4c(c3C2=O)C(=O)C(C(=O)OCC(O)CO)=C(NC(=O)/C(C)=C\C=C\[C@H](C)[C@H](O)[C@@H](C)[C@@H](O)[C@@H](C)[C@H](OC(C)=O)[C@@H]1C)C4=O` (some centres unmarked) [Example 12, 3-(1 glyceroxycarbonyl)rifamycin S], which MIC (Salmonella p typhi B) is on record?
**A.** > 100 µg/mL

**Q.** And the MIC (Klebsiella Ottaviani)?
**A.** > 100 µg/mL

**Q.** And the MIC (St. Aureus 209 P)?
**A.** ~0.5 µg/mL (≈ 0.614 µM)

**Q.** And the MIC (E. Coli ML/35)?
**A.** > 100 µg/mL

**Q.** With `CO[C@H]1/C=C/O[C@@]2(C)Oc3c(C)c(O)c4c(c3C2=O)C(=O)C(C(=O)N(C)C)=C(NC(=O)/C(C)=C\C=C\[C@H](C)[C@H](O)[C@@H](C)[C@@H](O)[C@@H](C)[C@H](OC(C)=O)[C@@H]1C)C4=O` [Example 13, 3-(N,N dimethylaminocarbonyl)rifamycin S] as the molecule, how does the MIC (Salmonella p typhi B) read?
**A.** > 50 µg/mL

**Q.** And the MIC (Klebsiella Ottaviani)?
**A.** > 50 µg/mL

**Q.** And the MIC (E. Coli ML/35)?
**A.** > 50 µg/mL

**Q.** What does the source list for `CO[C@H]1/C=C/O[C@@]2(C)Oc3c(C)c(O)c4c(c3C2=O)C(=O)C(C(=O)N(C)N2CCCCC2)=C(NC(=O)/C(C)=C\C=C\[C@H](C)[C@H](O)[C@@H](C)[C@@H](O)[C@@H](C)[C@H](OC(C)=O)[C@@H]1C)C4=O` [Example 14, 3-((N-(N'-piperidinyl)N-methyl)aminocarbonyl)rifamycin S]?
**A.** MIC (Salmonella p typhi B): > 50 µg/mL; MIC (Klebsiella Ottaviani): > 50 µg/mL; MIC (St. Aureus 209 P): ~0.03 µg/mL (≈ 0.0359 µM); MIC (E. Coli ML/35): > 50 µg/mL
